pIC50: −log10 of the molar value. ≈ marks a conversion by molar mass, not a printed value. Calls of active or inactive are those of the source. The calls are words filed in the database; no cut-off is given here.
How the values were obtained:
[1] = Aqueous solubility of compound at pH 7.4; type: physicochemical
[2] = test system: Mycobacterium tuberculosis; type: functional; settings: H37Rv, 168 h, time 7 day
[3] = Lipophilicity, log D of the compound in n-octanol and phosphate buffer at pH 7.4 measured after 3 hrs by HPLC-DAD analysis; type: physicochemical
[4] = test system: Mycobacterium tuberculosis; type: functional; settings: H37Rv, 168 h, time 7 day; remark: listed apart in the source
[5] = test system: Mycobacterium tuberculosis; type: functional; settings: H37Rv, 168 h, time 7 day; remark: listed apart in the source
[6] = Metabolic stability in rat liver microsomes assessed as parent compound remaining at 1 uM in presence of NADPH by LC-MS/MS analysis; type: ADME, Microsome
[7] = test system: Mycobacterium tuberculosis; experiment: Antimycobacterial activity against mmpL3 gene silenced Mycobacterium tuberculosis H37Rv assessed as inhibition of bacterial growth grown under middlebrook 7H9 medium incubated for 7 days by alamar blue broth microdilution method; type: functional, organism-based; settings: time 7.0 day
[8] = Metabolic stability in human liver microsomes assessed as parent compound remaining at 1 uM in presence of NADPH by LC-MS/MS analysis; type: ADME, Microsome
[9] = Metabolic stability in mouse liver microsomes assessed as parent compound remaining at 1 uM in presence of NADPH by LC-MS/MS analysis; type: ADME, Microsome
[10] = test system: Vero; experiment: Cytotoxicity against African green monkey Vero cells assessed as reduction in cell viability by MTT assay; type: cell-based; settings: Chlorocebus sabaeus
[11] = test system: Mycobacterium tuberculosis; type: functional; settings: H37Rv, 168 h, time 7 day; remark: listed apart in the source
[12] = test system: Mycobacterium tuberculosis; type: functional; settings: H37Rv, 168 h, time 7 day; remark: listed apart in the source
[13] = test system: Mycobacterium tuberculosis; experiment: Antimycobacterial activity against wild-type Mycobacterium tuberculosis H37Rv assessed as inhibition of bacterial growth grown under middlebrook 7H9 medium incubated for 7 days by alamar blue broth microdilution method; type: functional; settings: 168 h, time 7 day
[14] = Volume of distribution during elimination phase in C57/BL6 mouse blood at 2 mg/kg, iv administered as bolus dose measured upto 24 hrs by LC-MS/MS analysis; type: ADME, organism-based; settings: mouse, in vivo, 2 mg/kg, 24 h
[15] = Metabolic stability in human liver microsomes assessed as parent compound remaining after 30 mins; type: ADME, Microsome; settings: 0.5 h
[16] = Metabolic stability in mouse liver microsomes assessed as parent compound remaining after 30 mins; type: ADME, Microsome; settings: 0.5 h
[17] = test system: Mycobacterium tuberculosis; experiment: Bactericidal activity against Mycobacterium tuberculosis H37Rv assessed as reduction in CFU grown under middlebrook 7H9/OADC-Glycerol-Tween80 medium at 1 to 2 times MIC incubated for 7 days; type: functional; settings: time 7 day
[18] = Apparent half life in C57/BL6 mouse blood at 2 mg/kg, iv administered as bolus dose measured upto 24 hrs by LC-MS/MS analysis; type: ADME, organism-based; settings: mouse, in vivo, 2 mg/kg, 24 h
[19] = Cmax in C57/BL6 mouse blood at 2 mg/kg, iv administered as bolus dose measured upto 24 hrs by LC-MS/MS analysis; type: ADME, organism-based; set-up: route intravenous, dose 2 mg/kg, time <=24; settings: mouse, in vivo, 24 h
[20] = Oral bioavailability in C57/BL6 mouse blood at 20 mg/kg measured upto 24 hrs by LC-MS/MS analysis; type: ADME, organism-based; settings: mouse, in vivo, 20 mg/kg, 24 h
[21] = AUC (0 to infinity) in C57/BL6 mouse blood at 2 mg/kg, iv administered as bolus dose measured upto 24 hrs by LC-MS/MS analysis; type: ADME, organism-based; set-up: route intravenous, dose 2 mg/kg, time <=24; settings: mouse, in vivo, 24 h
[22] = Apparent half life in C57/BL6 mouse blood at 20 mg/kg, po measured upto 24 hrs by LC-MS/MS analysis; type: ADME, organism-based; settings: mouse, in vivo, 20 mg/kg, 24 h
[23] = Cmax in C57/BL6 mouse blood at 20 mg/kg, po measured upto 24 hrs by LC-MS/MS analysis; type: ADME, organism-based; set-up: route oral, dose 20 mg/kg, time <=24; settings: mouse, in vivo, 24 h
[24] = Tmax in C57/BL6 mouse blood at 20 mg/kg, po measured upto 24 hrs by LC-MS/MS analysis; type: ADME, organism-based; settings: mouse, in vivo, 20 mg/kg, 24 h
[25] = Metabolic stability in rat liver microsomes assessed as parent compound remaining after 30 mins; type: ADME, Microsome; settings: 0.5 h
[26] = Intrinsic clearance in C57/BL6 mouse blood at 2 mg/kg, iv administered as bolus dose measured upto 24 hrs by LC-MS/MS analysis; type: ADME, organism-based; settings: in vivo
[27] = Kinetic solubility of compound at 200 uM at pH 7.4 measured after 20 hrs by HPLC-DAD analysis; type: physicochemical; settings: buffer, pH 7.4, 20 h
[28] = Protein binding in human plasma assessed as unbound fraction at 5 uM incubated for 1 hr at 37 degreeC and measured after 4 hrs by ultracentrifugation based LC-MS/MS analysis; type: ADME, cell-free; settings: 5 h
[29] = test system: CHO; experiment: Cytotoxicity against CHO cells assessed as reduction in cell viability by MTT assay; type: cell-based; settings: Cricetulus griseus
[30] = target: Voltage-gated inwardly rectifying potassium channel KCNH2 (Homo sapiens, UniProt Q12809); experiment: Inhibition of human ERG
[31] = test system: Mycobacterium tuberculosis; type: functional; settings: H37Rv, time 6.0 hrs
[32] = test system: Mycobacterium tuberculosis; experiment: Upregulation of rv1346 in Mycobacterium tuberculosis H37Rv assessed as fold change incubated for 6 hrs by microarray based assay; type: functional
[33] = test system: Mycobacterium tuberculosis; experiment: Upregulation of rv1347 in Mycobacterium tuberculosis H37Rv assessed as fold change incubated for 6 hrs by microarray based assay; type: functional
[34] = test system: Mycobacterium tuberculosis; experiment: Upregulation of rv1343 in Mycobacterium tuberculosis H37Rv assessed as fold change incubated for 6 hrs by microarray based assay; type: functional
[35] = Metal chelating activity assessed as Fe2+-compound complex formation by measuring shift in absorbance at 10 uM at 285 nm measured after 1 hr in presence of ferrous sulphate by UV-Visible spectrophotometric analysis
[36] = test system: Mycobacterium tuberculosis; experiment: Upregulation of rv1345 in Mycobacterium tuberculosis H37Rv assessed as fold change incubated for 6 hrs by microarray based assay; type: functional
[37] = test system: Mycobacterium tuberculosis; experiment: Upregulation of rv1348 in Mycobacterium tuberculosis H37Rv assessed as fold change incubated for 6 hrs by microarray based assay; type: functional
[38] = test system: Mycobacterium tuberculosis; type: functional; settings: H37Rv, time 6.0 hrs; remark: listed apart in the source
[39] = test system: Mycobacterium tuberculosis; experiment: Upregulation of rv1349 in Mycobacterium tuberculosis H37Rv assessed as fold change incubated for 6 hrs by microarray based assay; type: functional
[40] = test system: Mycobacterium tuberculosis; experiment: Upregulation of rv2384 in Mycobacterium tuberculosis H37Rv incubated for 6 hrs by microarray based assay; type: functional
[41] = test system: Mycobacterium tuberculosis; type: functional; settings: H37Rv, time 6.0 hrs; remark: listed apart in the source
[42] = test system: Mycobacterium tuberculosis; experiment: Upregulation of rv2385 in Mycobacterium tuberculosis H37Rv incubated for 6 hrs by microarray based assay; type: functional
[43] = test system: Mycobacterium tuberculosis; type: functional; settings: H37Rv, time 6.0 hrs; remark: listed apart in the source
[44] = test system: Mycobacterium tuberculosis; experiment: Upregulation of rv3270 in Mycobacterium tuberculosis H37Rv incubated for 6 hrs by microarray based assay; type: functional
[45] = test system: Mycobacterium tuberculosis; experiment: Upregulation of rv1342 in Mycobacterium tuberculosis H37Rv assessed as fold change incubated for 6 hrs by microarray based assay; type: functional
[46] = test system: Mycobacterium tuberculosis; type: functional; settings: H37Rv, 168 h, time 7 day; remark: listed apart in the source
[47] = test system: Mycobacterium tuberculosis; type: functional, H37Rv; settings: time 7 day
[48] = test system: Mycobacterium tuberculosis; type: functional; settings: H37Rv, time 6.0 hrs; remark: listed apart in the source
[49] = test system: Mycobacterium tuberculosis; type: functional; settings: H37Rv, time 6.0 hrs; remark: listed apart in the source
[50] = test system: Mycobacterium tuberculosis; type: functional; settings: H37Rv, time 6.0 hrs; remark: listed apart in the source
[51] = test system: Mycobacterium tuberculosis; experiment: Upregulation of rv3269 in Mycobacterium tuberculosis H37Rv incubated for 6 hrs by microarray based assay; type: functional
[52] = test system: Mycobacterium tuberculosis; experiment: Upregulation of rv1344 in Mycobacterium tuberculosis H37Rv assessed as fold change incubated for 6 hrs by microarray based assay; type: functional
[53] = Metal chelating activity assessed as Fe2+-compound complex formation by measuring decrease in band intensity at 10 uM measured after 1 hr in presence of ferrous sulphate by UV-Visible spectrophotometric analysis
[54] = test system: Mycobacterium tuberculosis; type: functional; settings: H37Rv, time 6.0 hrs; remark: listed apart in the source

Sequence of Voltage-gated inwardly rectifying potassium channel KCNH2 (Q12809 whole entry): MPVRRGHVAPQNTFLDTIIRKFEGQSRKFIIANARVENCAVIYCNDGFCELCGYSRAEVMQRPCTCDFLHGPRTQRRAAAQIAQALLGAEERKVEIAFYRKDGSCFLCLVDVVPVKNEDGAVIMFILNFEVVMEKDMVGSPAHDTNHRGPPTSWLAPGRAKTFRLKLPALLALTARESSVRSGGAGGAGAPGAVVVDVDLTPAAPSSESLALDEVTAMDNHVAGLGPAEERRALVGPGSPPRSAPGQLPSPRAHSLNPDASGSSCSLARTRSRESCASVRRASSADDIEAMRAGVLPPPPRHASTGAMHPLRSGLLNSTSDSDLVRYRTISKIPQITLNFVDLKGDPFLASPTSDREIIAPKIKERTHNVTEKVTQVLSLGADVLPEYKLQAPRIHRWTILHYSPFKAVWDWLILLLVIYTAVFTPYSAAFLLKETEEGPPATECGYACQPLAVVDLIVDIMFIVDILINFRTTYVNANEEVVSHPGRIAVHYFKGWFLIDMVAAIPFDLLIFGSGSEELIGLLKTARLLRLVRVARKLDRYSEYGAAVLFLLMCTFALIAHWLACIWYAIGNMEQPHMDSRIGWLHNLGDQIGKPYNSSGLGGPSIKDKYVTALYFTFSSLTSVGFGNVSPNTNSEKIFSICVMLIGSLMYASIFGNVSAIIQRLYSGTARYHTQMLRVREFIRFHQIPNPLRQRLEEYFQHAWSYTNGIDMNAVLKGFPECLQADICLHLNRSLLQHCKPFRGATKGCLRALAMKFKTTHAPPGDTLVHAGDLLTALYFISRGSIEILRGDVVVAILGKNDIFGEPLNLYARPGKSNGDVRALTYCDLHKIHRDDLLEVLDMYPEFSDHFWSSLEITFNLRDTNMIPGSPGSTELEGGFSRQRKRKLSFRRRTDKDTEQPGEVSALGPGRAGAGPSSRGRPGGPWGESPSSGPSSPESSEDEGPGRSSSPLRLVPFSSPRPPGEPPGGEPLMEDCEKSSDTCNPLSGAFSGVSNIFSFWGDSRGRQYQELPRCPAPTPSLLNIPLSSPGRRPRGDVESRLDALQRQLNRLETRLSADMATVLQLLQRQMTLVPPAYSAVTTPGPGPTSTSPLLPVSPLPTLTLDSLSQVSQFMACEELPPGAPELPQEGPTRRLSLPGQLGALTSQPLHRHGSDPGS

Cc1ccc(Nc2cc(C)nn2-c2nc(C)cc(O)n2)cc1
solubility ([1]; aqueous, read-out: solubility): < 5 µM
MIC [2]: 2 µM (≈ 0.591 µg/mL)
logD at 3 h [3]: 2.2
MIC [4]: 0.2 µM (≈ 0.0591 µg/mL)
MIC [5]: 6 µM (≈ 1.77 µg/mL)
Stabilty [6]: 76%
Activity [7]: Active
Stabilty [8]: 73%
Stabilty [9]: 78%
pIC50 [10]: 5.92
MIC [11]: 0.4 µM (≈ 0.118 µg/mL)
MIC [12]: 0.02 µM (≈ 0.00591 µg/mL)
MIC [13]: 4.8 µM (≈ 1.42 µg/mL)

Cc1cc(C)n(-c2nc(C(F)(F)F)cc(=O)[nH]2)n1
Vd [14]: 0.7 L/kg
Stabilty [15]: > 99%
solubility ([1]; buffer): 200 µM (≈ 51.6 µg/mL)
Stabilty [16]: > 99%
Activity [17]: 2 log10CFU
t1/2(app) [18]: 3.1 h
Cmax [19]: 29.1 µM
F [20]: 41%
AUC [21]: 2928 µM·min
MIC [2]: 12 µM (≈ 3.1 µg/mL)
t1/2(app) [22]: 4 h
Cmax [23]: 65.6 µM
Tmax [24]: 0.5 h
Stabilty [25]: 92%
CL [26]: 476 mL/min/kg
Kinetic_solubility [27]: 200 µM
Activity [7]: Active
Fu [28]: 0.006
pIC50 [29]: 3.82
pIC50 [30]: < 4.52
MIC [13]: 15 µM (≈ 3.87 µg/mL)

CO[C@H]1/C=C/O[C@@]2(C)Oc3c(C)c(O)c4c(O)c(c(/C=N/N5CCN(C)CC5)c(O)c4c3C2=O)NC(=O)/C(C)=C\C=C\[C@H](C)[C@H](O)[C@@H](C)[C@@H](O)[C@@H](C)[C@H](OC(C)=O)[C@@H]1C [RIFAMPIN]
Activity [17]: 2 log10CFU

Cc1cc(Nc2ccccn2)n(-c2nc(C(F)(F)F)cc(=O)[nH]2)n1
Activity [31]: Active
fold change (FC) [32]: 2
fold change (FC) [33]: 2
Stabilty [15]: > 99%
solubility ([1]; buffer): 25 µM (≈ 8.41 µg/mL)
fold change (FC) [34]: 2
Stabilty [16]: > 99%
deltaA [35]: 300 nm
fold change (FC) [36]: 2
fold change (FC) [37]: 2
Activity [38]: Active
fold change (FC) [39]: 2
Activity [40]: Active
Activity [41]: Active
Activity [42]: Active
Activity [43]: Active
Activity [44]: Active
MIC [2]: 0.9 µM (≈ 0.303 µg/mL)
Stabilty [25]: 96%
Kinetic_solubility [27]: 25 µM
fold change (FC) [45]: 2
MIC [46]: 0.12 µM (≈ 0.0404 µg/mL)
fold change (FC) [47]: >=32
Activity [48]: Active
Activity [49]: Active
Activity [50]: Active
Activity [51]: Active
fold change (FC) [52]: 2
pIC50 [29]: 4.64
Activity [53]: Active
Activity [54]: Active

— ChEMBL document CHEMBL4706648, “Antitubercular 2-Pyrazolylpyrimidinones: Structure-Activity Relationship and Mode-of-Action Studies” (J Med Chem, 2021)
